According to publication PMC11024869, “The activity of antimicrobial peptoids against multidrug-resistant ocular pathogens” (Contact lens & anterior eye : the journal of the British …, 2024):
Converted amounts (≈) assume the structure as drawn. “And” between values parts separate entries of the source, which are not always exact repeats. Equal entries are not always repeated. Non-standard residues stand in square brackets, D forms with d. Residues, ends and D or L forms follow the SMILES beside them. Nspe(4-Br) = C[C@H](NCC(=O)O)c1ccc(Br)cc1; Nlys = NCCCCNCC(=O)O

Key:
Assay type in all cases: cell-based
[1] = test system: Pseudomonas aeruginosa PAO1; settings: PAO1, 24 h
From the text: (§3) The S. pneumoniae strains used were SP04, SP06 and SP07 [46] and Streptococcus gallolyticus SV06 (all isolated from eyes of contact lens wearers during adverse events); P. aeruginosa PAO1 (which was originally isolated from a wound, and is an invasive strain containing the gene exoS) as well as isolates from microbial keratitis, PA 235 (invasive strain containing exoS), PA216 (a cytotoxic strain containing exoU), PA219 (cytotoxic strain containing exoU), PA 233 (cytotoxic strain containing exoU), with various susceptibilities to antibiotics were also used [14]. C. albicans ATCC 10231, a yeast, isolated from case of a human bronchomycosis, was also evaluated.
(§4) The peptoids’ minimum inhibitory and bactericidal concentrations (MIC and MBC) were determined using micro broth dilution methods as previously described with slight modifications, [26, 39, 49, 50], and without using acetic acid and bovine serum albumin [39]. Briefly, bacteria or yeast were suspended in Muller Hinton broth (MHB, Oxoid, Thermo Fisher Scientific, Thebarton, SA, Australia) at 0.1 OD660nm, which was equivalent to 1x10^8 colony forming units (CFU) mL^−1. This suspension was further diluted to achieve 5x10^6 CFU mL^−1. The peptoids were diluted in MHB from 250 to 0.24 μg mL^−1 in 96-well polystyrene microplates (COSTAR, Corning Incorporated, New York, NY, USA) [39]. […] This was followed by addition of 100 μL of each microbial suspensions. Wells with only bacteria or the yeast were treated as a negative control, and wells with only MHB medium were treated as a blank. The plates were incubated at 37 °C with shaking at 120 rpm for 24 h. After incubation, the media in each well was serially diluted in phosphate buffered solution and then inoculated onto tryptone soya agar (Oxoid) plates for bacteria, or Sabouraud’s dextrose agar for the yeast, and incubated at 37 °C for 18 hrs. Post incubation, the number of CFUs on the agar plates was counted.

[2] = test system: Pseudomonas aeruginosa PA216; settings: PA216, 24 h
From the text: as §3, §4

[3] = test system: Pseudomonas aeruginosa PA219; settings: PA219, 24 h
From the text: as §3, §4

[4] = test system: Pseudomonas aeruginosa PA233; settings: PA233, 24 h
From the text: All S. aureus strains used were isolated from cases of microbial keratitis (Table 1) with various susceptibilities to antibiotics. The S. pneumoniae strains used were SP04, SP06 and SP07 [46] and Streptococcus gallolyticus SV06 (all isolated from eyes of contact lens wearers during adverse events); P. aeruginosa PAO1 (which was originally isolated from a wound, and is an invasive strain containing the gene exoS) as well as isolates from microbial keratitis, PA 235 (invasive strain containing exoS), PA216 (a cytotoxic strain containing exoU), PA219 (cytotoxic strain containing exoU), PA 233 (cytotoxic strain containing exoU), with various susceptibilities to antibiotics were also used. C. albicans ATCC 10231, a yeast, isolated from case of a human bronchomycosis, was also evaluated.
The peptoids’ minimum inhibitory and bactericidal concentrations (MIC and MBC) were determined using micro broth dilution methods as previously described with slight modifications, [26, 39, 49, 50], and without using acetic acid and bovine serum albumin [39]. Briefly, bacteria or yeast were suspended in Muller Hinton broth (MHB, Oxoid, Thermo Fisher Scientific, Thebarton, SA, Australia) at 0.1 OD660nm, which was equivalent to 1x10^8 colony forming units (CFU) mL^−1. This suspension was further diluted to achieve 5x10^6 CFU mL^−1. The peptoids were diluted in MHB from 250 to 0.24 μg mL^−1 in 96-well polystyrene microplates (COSTAR, Corning Incorporated, New York, NY, USA). This range was selected to cover the range of MIC values previously reported for ESKAPE pathogens. This was followed by addition of 100 μL of each microbial suspensions. Wells with only bacteria or the yeast were treated as a negative control, and wells with only MHB medium were treated as a blank. The plates were incubated at 37 °C with shaking at 120 rpm for 24 h. After incubation, the media in each well was serially diluted in phosphate buffered solution and then inoculated onto tryptone soya agar (Oxoid) plates for bacteria, or Sabouraud’s dextrose agar for the yeast, and incubated at 37 °C for 18 hrs. Post incubation, the number of CFUs on the agar plates was counted.

[5] = test system: Pseudomonas aeruginosa PA235; settings: PA235, 24 h
From the text: as §3, §4

[6] = test system: Staphylococcus aureus SA34; settings: SA34, 24 h
From the text: as §3, §4

[7] = test system: Staphylococcus aureus SA65; settings: SA65, 24 h
From the text: as §3, §4

[8] = test system: Staphylococcus aureus SA113; settings: SA113, 24 h
From the text: as §3, §4

[9] = test system: Staphylococcus aureus SA114; settings: SA114, 24 h
From the text: as §3, §4

[10] = test system: Staphylococcus aureus SA117; settings: SA117, 24 h
From the text: as §3, §4

[11] = test system: Streptococcus pneumoniae SP04; settings: SP04, 24 h
From the text: as §3, §4

[12] = test system: Streptococcus pneumoniae SP06; settings: SP06, 24 h
From the text: as §3, §4

[13] = test system: Streptococcus pneumoniae SP07; settings: SP07, 24 h
From the text: as §3, §4

[14] = test system: Streptococcus gallolyticus SG04; settings: 24 h
From the text: as §3, §4

[15] = test system: viridans group streptococcus SV06; settings: 24 h
From the text: as §3, §4

[16] = test system: Candida albicans ATCC 10231; assay: MIC/MBC (fungicidal) micro broth dilution; settings: ATCC 10231 (yeast), MHB, 24 h 37 °C
From the text: as §3, §4

horse erythrocytes = assay: In vitro assay for hemolysis, horse blood
Description: (§1) Hemolysis caused by the peptoids was measured using 18 to 20 mL of a horse or human blood collected in EDTA-coated tubes which has been centrifuged at 500×g for 5 min. The supernatant was discarded and the pellet containing the cells were resuspended in PBS to a final volume of 20 mL. This step was repeated five times. After the final wash, the pellet was resuspended in PBS at the ratio of 1:10 (1 mL red blood cell: 9 mL PBS) to yield a final red blood cell (RBC) concentration of approximately 5 × 10^8 cells mL^−1. The concentration of RBCs was confirmed using a hemocytometer. The peptoids (stock concentration 2 mM) were diluted sequentially (two-fold dilutions) in PBS to final concentrations of […]. All the dilutions were subsequently mixed with the RBC suspension at the ratio of 1:1. MilliQ water was used as a positive control and PBS was used as a negative control in this assay. All samples were incubated at 37 °C for 3 h. Following incubation, the tubes were centrifuged at 500 x g for five mins, the supernatants were collected, transferred to wells in a 96 well plate and their optical density was measured at 540 nm. The percentage of hemolysis was calculated by dividing the absorbance of the test sample by the absorbance of the positive control, and multiplying by 100. Data are presented as the hemolysis caused by each dilution of peptoid, and as the concentration of peptoid that caused 10 % or 50 % lysis of red blood cells.
(§2) The geometric mean is the nth root of the multiplied numbers, where n is the total number of data values. A similar formula was used to calculate the selectivity ratio, but by using the concentration of peptoid that caused 10 % hemolysis.

human erythrocytes = assay: In vitro assay for hemolysis, human blood
Description: as §1, §2

tested bacteria = assay: Geometric mean of MIC of the tested bacteria; settings: nth root of the multiplied MICs of the tested bacteria
From the text: as §2

## C[C@@H](c1ccc(Br)cc1)N(CC(=O)N(CCCCN)CC(=O)N(CC(=O)N(CC(=O)N(CCCCN)CC(N)=O)[C@@H](C)c1ccc(Br)cc1)[C@@H](C)c1ccc(Br)cc1)C(=O)CN(C(=O)CNCCCCN)[C@@H](C)c1ccc(Br)cc1 [TM14] (H-[Nlys][Nspe(4-Br)][Nspe(4-Br)][Nlys][Nspe(4-Br)][Nspe(4-Br)][Nlys]-NH2)
[1]
  MBC: 15 µg/mL (≈ 11 µM)
  MIC: 7.8 µg/mL (≈ 5.73 µM)
[2]
  MBC: 15 µg/mL (≈ 11 µM)
  MIC: 7.8 µg/mL (≈ 5.73 µM)
[3]
  MBC: 15(11)/15(11) μg mL^−1
  MIC: 15(11)/15(11) μg mL^−1
[4]
  MBC: 31 µg/mL (≈ 22.8 µM)
  MIC: 15 µg/mL (≈ 11 µM)
[5]
  MBC: 31 µg/mL (≈ 22.8 µM)
  MIC: 15 µg/mL (≈ 11 µM)
[6]
  MBC: 3.9(2.9)/3.9(2.9) μg mL^−1
  MIC: 3.9(2.9)/3.9(2.9) μg mL^−1
[7]
  MBC: 1.9(1.4)/1.9(1.4) μg mL^−1
  MIC: 1.9(1.4)/1.9(1.4) μg mL^−1
[8]
  MBC: 3.9 µg/mL (≈ 2.86 µM)
  MIC: 1.9 µg/mL (≈ 1.4 µM)
[9]
  MBC: 1.9(1.4)/1.9(1.4) μg mL^−1
  MIC: 1.9(1.4)/1.9(1.4) μg mL^−1
[10]
  MBC: 3.9(2.9)/3.9(2.9) μg mL^−1
  MIC: 3.9(2.9)/3.9(2.9) μg mL^−1
[11]
  MBC: 15(11)/15(15) μg mL^−1
  MIC: 15(11)/15(15) μg mL^−1
[12]
  MBC: 1.9(1.4)/1.9(1.4) μg mL^−1
  MIC: 1.9(1.4)/1.9(1.4) μg mL^−1
[13]
  MBC: 15(11)/15(11) μg mL^−1
  MIC: 15(11)/15(11) μg mL^−1
[14]
  MBC: 15(11)/15(11) μg mL^−1
  MIC: 15(11)/15(11) μg mL^−1
[15]
  MBC: 15(11)/15(11) μg mL^−1
  MIC: 15(11)/15(11) μg mL^−1
[16]; ≥90 % reduction in CFUs
  MIC: 3.9(2.8)/3.9(2.8) μg mL^−1
[16]; ≥99.99 % reduction in CFUs
  MBC (minimum fungicidal concentration): 3.9(2.8)/3.9(2.8) μg mL^−1
Horse erythrocytes
  SR horse blood (ratio HC10 to geometric mean MIC): 0.8
Horse erythrocytes; red cells of horse, 3 h
  Horse HC10: 3 µM
  Horse HC50: 45 µM
Horse erythrocytes; therapeutic index
  TI horse blood (ratio HC50 to geometric mean MIC): 11
Human erythrocytes
  SR human blood (ratio HC10 to geometric mean MIC): 2
Human erythrocytes; red cells of human, 3 h
  Human HC10: 8 µM
  Human HC50: 90 µM
Human erythrocytes; therapeutic index
  TI human blood (ratio HC50 to geometric mean MIC): 23
Tested bacteria
  Geometric mean of MIC: 4.0 µM and 4 µM
